The test system of one experiment is SCC-4 cells. Kind of experiment: MTT cell viability assay, SCC-4. Format: cell-based, human. Particulars: for IC50: Homo sapiens, SCC-4, 72 h, MTT, read-out: IC50 SCC-4; for selective index (SI) SCC-4: vs normal oral fibroblasts. The procedure: (§1) Human SCC-4, SCC-9, and SCC-25 cells, derived from a human oral tongue SCC (squamous cell carcinoma), were obtained from ATCC (CRL-1624, CRL-1629, and CRL-1628, respectively) and maintained in 1:1 DMEM/F12 (Dulbecco’s modified Eagle’s medium and Ham’s F12 medium; Gibco (Thermo Fisher, Waltham, MA, USA)) supplemented with 10% (v/v) FBS (fetal bovine serum; Invitrogen, Thermo Fisher, Waltham, MA, USA) and 400 ng/mL hydrocortisone (Sigma-Aldrich Corporation, St. Louis, MO, USA). B16-F10 (melanoma; CRL-6475), HCT-116 (colorectal cancer; CCL-247), and HepG2 (liver cancer; HB-8065), in addition to primary normal human gingival fibroblasts obtained from ATCC (PCS-201-018), were maintained in DMEM supplemented with 10% (v/v) of FBS and were used in a maximum of six passages. Cells were grown in a humidified environment containing 5% CO2 at 37 °C. For all biological assays, compounds and shikonin were solubilized in 100% DMSO (all Sigma-Aldrich Corp.) to a final concentration of 10 mM and lapachol in ethanol. The carboplatin control was prepared in water (Fauldcarbo; Libbs Farmacêutica, São Paulo, SP, Brazil) and was used as a standard anticancer compound.
(§2) The viability of OSCC cell lines and primary human fibroblast cells was assessed using the MTT assay as in ref . Briefly, cells were grown in triplicate in 96-well plates (5 × 10^3 cells/well) until confluence. Then, the medium was removed, fresh medium was added, and the cells were returned to the incubator in the presence of different compounds. DMSO at the same concentration was used as a control for 100% cell viability. After 72 h, cells were incubated with 0.5 mg/mL of MTT reagent (3-(4,5-dimethyl-2-thiazolyl)-2,5-diphenyl-2-H-tetrazolium bromide) (Sigma-Aldrich Corporation, Louis, MO, USA) for 3.5 h. Then, the wells containing the cells were washed with PBS heated to 37 °C, the formazan crystals were dissolved in a solvent solution (DMSO/methanol 1:1 v/v), and the absorbance was read at 560 nm using an EPOCH microplate spectrophotometer (BioTek Instruments, Winooski, VT, USA) with the background absorbance at 670 nm subtracted. Control chemotherapeutics (carboplatin and shikonin) were used.
(§3) Data are presented as means ± SD. IC50 values for the MTT assays were obtained by nonlinear regression using the […] 8.4.3.0 program (Intuitive Software for Science, San Diego, CA, USA) from at least three independent experiments. A dose–response curve (inhibitor) vs response using the least-squares method was used to determine the IC50, SD, and R2 of the data. The selectivity index was calculated as SI = IC50 of the compound in normal oral fibroblast cells/IC50 of the same compound for each oral cancer cell line (SCC-4, SCC-9, and SCC-25) and averaged when indicated.

Experiment [1] relates to primary normal human gingival fibroblasts. Kind of experiment: MTT cell viability assay, primary gingival fibroblasts. The experiment is classed as cell-based. Particulars: Homo sapiens, Fibroblast; 72 h, MTT; read-out: IC50 primary gingival fibroblast. As for the experimental part: as §1, §2, §3
In general terms: Formazan colour is commonly taken as a measure of viable cells.

The test system of the next experiment is B16-F10 (melanoma). Put plainly: MTT cytotoxicity/selectivity, B16-F10. Format: cell-based. Particulars: vs normal oral fibroblasts. As for the experimental part: as §1
as §2, with “DMSO at the same concentration was used as a control for 100% cell viability. After 72 h, cells were incubated with 0.5 mg/mL of MTT reagent (3-(4,5-dimethyl-2-thiazolyl)-2,5-diphenyl-2-H-tetrazolium bromide) (Sigma-Aldrich Corporation, Louis, MO, USA) for 3.5 h.” left out, “Control chemotherapeutics (carboplatin and shikonin) were used.” left out
(§4) Data are presented as means ± SD. […] The selectivity index was calculated as SI = IC50 of the compound in normal oral fibroblast cells/IC50 of the same compound for each oral cancer cell line (SCC-4, SCC-9, and SCC-25) and averaged when indicated.

In another experiment the test system is SCC-9 cells. Put plainly: Cell migration (wound healing) assay. Format: cell-based, human. Conditions: 1/8 of IC50, 72 h, SCC-9, mitomycin C. As for the experimental part:
To evaluate the inhibitory capacity of cell migration by substances 7a and 7e, 2 × 10^5 cells of the SCC-9 lineage were plated in a 35 mm Petri dish containing 2.0 mL of supplemented DMEN/F-12 medium and incubated at 37 °C with 5% CO2 until they reached at least ∼100% confluence. After this time, the metabolized medium was removed, and the cells were washed once with PBS and fresh medium (2.0 mL) treated with mitomycin C (MMC), 1-amino-9a-metoxi-7-metil-4,7,9,9a-tetra-hidro-3H-furo[3,4:6,7]-nafto[1,2-d]-imidazole-2(1H)-ona (Sigma-Aldrich Corporation, San Luis, Missouri, USA) at a concentration of 0.5 mg/mL, in a volume of 0.5 μL/mL, and returned to the incubator for 2 h. At the end of the time, scratch wounds were created on the cell monolayer by using a 200 μL capacity tip. […] The plate containing the cells was inserted into a chamber adapted to a Leica DMi1 inverted optical microscope (Leica Microsystems, Wetzlar, Germany) under controlled conditions of CO2 (5%) and temperature (37 °C). Phase contrast images in timelapse footage at 20× magnification for 72 h were captured every 2 min and 24 s. Measurements between the captured margins were collected using ImageJ analysis software (National Institute of Health, USA). […] The percentage of wound closure at each subsequent time is calculated in relation to the initial distance (time: 0 h).

In another experiment the test system is SCC-25 cells. Kind of experiment: MTT cell viability assay, SCC-25. Format: cell-based, human. Particulars: for IC50: Homo sapiens, SCC-25, 72 h, MTT, read-out: IC50 SCC-25; for selective index (SI) SCC-25: vs normal oral fibroblasts. The procedure: as §1, §2, §3
In another experiment the test system is SCC-9-LC3-GFP cells. Put plainly: Autophagy assay (LC3-GFP puncta). Format: cell-based, human. Conditions: 1 × IC50, 48 h. As for the experimental part:
To determine whether compounds 7a and 7e induce autophagy, SCC-9 cells were stably transduced with the plasmid expressing LC3-GFP as described. […] As a positive control, we used compound 8 (Supplementary Figure S1), an already described naphthoquinone-triazole-coumarin hybrid, able to induce autophagy at its IC50 concentration, 30 μM. After 48 h, the cells were visualized using a Zeiss Axio Observer A1 Fluorescence Optical Microscope (Zeiss, Oberkochen, Baden-Württemberg, Germany) to observe the formation of typical autophagy spots and photographed using a high-resolution monochromatic microscopy camera (Axiocam 503 mono, resolution: 1936 × 1460 pixels, pixel size: 4.54 μm × 4.54 μm) to maximize sensitivity and image quality.

For experiment [2], the system named is active caspase 3/7 in SCC-9 cells. Put plainly: Active caspase 3/7 staining. Particulars: 2 × IC50, 24 h. Format: cell-based, human. The procedure: The following reagents were used in this assay: CellEvent Caspase-3/7 Green Ready Probes Reagent kit (R37111, Thermo Fisher, Waltham, Massachusetts, USA). SCC-9 cells were plated in 24-well microplates in the amount of 5 × 10^4 cells per well as previously described in ref . […] The duration of the treatment time was 24 h. After this period, the cells were taken to the Zeiss Axio Observer A1 fluorescence optical microscope (Zeiss, Oberkochen, Baden-Württemberg, Germany) to obtain caspase labeling images from five different fields. Data quantification was performed using the ImageJ program, and the values of reactive cells for caspase were compared in relation to the total number of cells per field, and the result was given as a percentage.

For experiment [3], the system named is HCT-116 (colorectal cancer). Put plainly: MTT cytotoxicity/selectivity, HCT-116. Format: cell-based. Conditions: vs normal oral fibroblasts. As for the experimental part: as §1
as §2, with “DMSO at the same concentration was used as a control for 100% cell viability. After 72 h, cells were incubated with 0.5 mg/mL of MTT reagent (3-(4,5-dimethyl-2-thiazolyl)-2,5-diphenyl-2-H-tetrazolium bromide) (Sigma-Aldrich Corporation, Louis, MO, USA) for 3.5 h.” left out, “Control chemotherapeutics (carboplatin and shikonin) were used.” left out
as §4

From publication PMC12444508, “Mechanistic Insights into the Anticancer Action of Novel 2‑Hydroxy-1,4-naphthoquinone Thiol Derivatives” (ACS Omega, 2025) come the findings set out here.

Broadly, the IC50 is the midpoint of a concentration-inhibition curve. Turning to `CC1(C)OC2=C(C(=O)c3ccccc3C2=O)C(Sc2ccccc2)C1Sc1ccccc1` (centres unmarked) [7a, 2,2-Dimethyl-3,4-bis(phenylthio)-3,4-dihydro-2H-benzo[g]chromene-5,10-dione], the figures for the IC50 (with SCC-4 cells; in experiment [1]; in the experiment on SCC-25 cells) were 10.6 µM, 57.3 µM and 28.2 µM, respectively. The “selective index (SI) SCC-4” value in the experiment on SCC-4 cells was 5.4. Besides, in the experiment on B16-F10 (melanoma), the “selective index (SI) B16-F10 melanoma” value came to 1.4. In the experiment on SCC-9 cells, this compound came in with a wound closure of 28.4%. Also, the “selective index (SI) SCC-25” value with SCC-25 cells is 2.0. Besides, in the experiment on SCC-9-LC3-GFP cells, the “cells with LC3-positive puncta (autophagosome formation)” value is listed as 20.5%. In addition, the “cells with positive staining for active caspases 3 and 7” value in experiment [2] is 71%. Further, in experiment [3], the “selective index (SI) HCT-116 colon cancer” value was determined as 2.7.
In the case of `COc1ccc(SC2C3=C(OC(C)(C)C2Sc2ccc(OC)cc2)C(=O)c2ccccc2C3=O)cc1` (centres unmarked) [7e, 3,4-Bis((4-methoxyphenyl)thio)-2,2-dimethyl-3,4-dihydro-2H-benzo[g]chromene-5,10-dione], in the experiment with SCC-4 cells, the 50% inhibitory concentration (IC50) is 57.1 µM and the “selective index (SI) SCC-4” value is given as 1.9. Moreover, the IC50 in experiment [1] was 110 µM. Besides, the “selective index (SI) B16-F10 melanoma” value in the experiment with B16-F10 (melanoma) is on record as 7.5. Moreover, the wound closure in the experiment with SCC-9 cells was 54.7%. For the same compound, in the experiment on SCC-25 cells, the IC50 was 13 µM and the “selective index (SI) SCC-25” value is 8.5. For the same compound, the “cells with LC3-positive puncta (autophagosome formation)” value in the experiment on SCC-9-LC3-GFP cells is reported as 7.4%. Also, the “cells with positive staining for active caspases 3 and 7” value in experiment [2] is 78.6%. For the same compound, the “selective index (SI) HCT-116 colon cancer” value in experiment [3] is 9.1.
